Reference: patent US20240327882A1, “Methods and Compositions for Increasing Bio-products in Cyanobacteria using Low-Dose Antibiotics” (priority 2023, published 2024)
Where “and” joins values, the source holds several entries; their conditions need not be identical. Equal values may be shown once. Entries after “also recorded” stand apart in the source; their conditions may differ.

Tests used:
[1] = tested on: Microcystis aeruginosa; conditions: cited from earlier work
[2] = tested on: F. diplosiphon strain B481-WT; assay: lactate dehydrogenase (LDH) activity / membrane permeability, strain B481-WT; assay type: cell-based, Fremyella diplosiphon
Protocol: The assay quantitatively measures released extracellular LDH activity in culture media by enzymatic reaction.
(§1) F. diplosiphon strains, B481-WT obtained from the UTEX algae repository (Austin, TX, United States), and B481-SD (overexpressed strain with the sterol desaturase gene; accession MH329183) were used in this study. Cultures were grown in liquid BG-11/HEPES medium under wide-spectrum red light (650 nm) with continuous shaking at 170 rpm at 28° C. in an Innova 44R shaker (Eppendorf, Hamburg, Germany) for 6 days. Light fluorescence rate was adjusted to 30 μmol m^−2 s^−1 using the model LI-190SA quantum sensor (Li-Cor, United States). These conditions were kept constant during the study.
Three classes of antibiotics: β-lactams (ampicillin), aminoglycosides (kanamycin), and tetracycline, were tested in this study. Antibiotic stock solutions (25×-100×) were prepared according to the manufacturer's instructions and stored at −20° C. […] Each antibiotic concentration was mixed with 5 ml F. diplosiphon cells adjusted to OD750 nm and 200 μl of each dilution added. […]
The flasks were placed in an incubator at 37° C. in the dark for 24 h prior to lactate dehydrogenase (“LDH”) measurement. On day 6, 50 μl cultures were transferred to a 96 well clear polystyrene microplate (Corning, Inc., NY), and fluorescence Epi-RGB mode was used to macro-evaluation of antibiotic-treated both strains (Amersham Imager 680, GE Healthcare Bio-Sciences AB, Uppsala, Sweden). […] Absorbance was measured at 490 nm using a microplate reader (BioTek Synergy H1 Microplate Reader, Agilent, United States) after 2 h incubation in the dark at room temperature. The calculated average of the control included cells without antibiotics or nVZI treatment was accepted as healthy cells and results were determined by subtracting LDH activity of the control from treated cells. Microscopic observations of antibiotic-related membrane and cyanobacterial structure alterations were made using a Cytation 5 Cell Imaging Multi-Mode reader (BioTek® Instruments, Inc., Winooski, United States).

[3] = tested on: F. diplosiphon strain B481-SD; assay: phycocyanin and chlorophyll α autofluorescence, strain B481-SD; assay type: cell-based, Fremyella diplosiphon; conditions: for concentrations with significant increase in pigment (phycocyanin and chlorophyll α) autofluorescence / concentrations with significant decrease in pigment (phycocyanin and chlorophyll α) autofluorescence: vs untreated control
Protocol: as §1
(§2) Three classes of antibiotics: β-lactams (ampicillin), aminoglycosides (kanamycin), and tetracycline, were tested in this study. Antibiotic stock solutions (25×-100×) were prepared according to the manufacturer's instructions and stored at −20° C. […] Each antibiotic concentration was mixed with 5 ml F. diplosiphon cells adjusted to OD750 nm and 200 μl of each dilution added.
(§3) Cells grown in the absence of antibiotics or nZVIs served as control. In order to minimize the effects of light scattering, every other well was left blank. Plates were sealed with a Breathe-Easy sealing membrane (Sigma-Aldrich, MO, Lot #MKCP8263) to prevent evaporative water loss and decrease the risk of contamination.
(§4) Phycocyanin and chlorophyll α fluorescence in antibiotic-treated and control F. diplosiphon B481-WT and B481-SD were recorded every other day (48 hour intervals) using a microplate reader (BioTek Synergy H1 Microplate Reader, Agilent, USA). While chlorophyll α fluorescence was recorded at an excitation of 420 nm and emission of 680 nm, phycocyanin was measured at excitations of 590 nm, and emissions of 650 nm, see FIGS. 5-20. Maximum PSII quantum yield (Fv/Fo) of treated and controlled F. diplosiphon strains was likewise measured using MINI-PAM (Walz, Effeltrich, Germany) every 48 h for 6 days after incubating in dark for 15 min. The (Fv/Fo) was calculated using the equation

[4] = tested on: F. diplosiphon strain B481-WT; assay: phycocyanin and chlorophyll α autofluorescence, strain B481-WT; assay type: cell-based, Fremyella diplosiphon; conditions: for concentrations with significant decrease in pigment (phycocyanin and chlorophyll α) autofluorescence / concentrations with enhanced pigment accumulation: vs untreated control
Protocol: as §1, §2, §3, §4

[5] = tested on: F. diplosiphon strain B481-SD; assay: maximum PSII quantum yield (Fv/Fo), strain B481-SD; assay type: cell-based, Fremyella diplosiphon
Protocol: as §4

[6] = tested on: F. diplosiphon strain B481-WT; assay type: cell-based, Fremyella diplosiphon
Protocol: (§5) The flasks were placed in an incubator at 37° C. in the dark for 24 h prior to lactate dehydrogenase (“LDH”) measurement. On day 6, 50 μl cultures were transferred to a 96 well clear polystyrene microplate (Corning, Inc., NY), and fluorescence Epi-RGB mode was used to macro-evaluation of antibiotic-treated both strains (Amersham Imager 680, GE Healthcare Bio-Sciences AB, Uppsala, Sweden). Next, 50 μL of the reaction mixture (LDH Cytotoxicity Assay Kit, Thermo Fisher Scientific, United States) was added. After incubation for 30 min. at room temperature in the dark, 50 μL of stock solution was added and mixed gently (Wejnerowski et al., 2018). Absorbance was measured at 490 nm using a microplate reader (BioTek Synergy H1 Microplate Reader, Agilent, United States) after 2 h incubation in the dark at room temperature. The calculated average of the control included cells without antibiotics or nVZI treatment was accepted as healthy cells and results were determined by subtracting LDH activity of the control from treated cells. Microscopic observations of antibiotic-related membrane and cyanobacterial structure alterations were made using a Cytation 5 Cell Imaging Multi-Mode reader (BioTek® Instruments, Inc., Winooski, United States).

[7] = tested on: F. diplosiphon B481-SD cultures; assay: total lipid content by gravimetry; assay type: cell-based, Fremyella diplosiphon; conditions: 0.8 mg/L; not statistically different (p>0.05)
Protocol: (§6) Total lipids were extracted and GC×GC/TOF-MS analysis of transesterified lipids in F. diplosiphon treated with optimal ampicillin were performed. B481-SD cultures were grown under optimal conditions and harvested on day 15. Total lipids were extracted using the chloroform: methanol method described by Folch et al. (1957). Briefly, cultures were pelleted and lyophilized, and 15 mL methanol/chloroform (2:1, v/v) solvent was added to 100 mg dry weight of cells. The mixture was homogenized, incubated on ice, and centrifuged at 3000 rpm for 10 min to collect the organic phase. The biomass residue was re-extracted thrice with 4 mL of methanol and 2 mL of chloroform. The lower organic phase was dried in a rotary evaporator (Heidolph, IL, USA), and the total lipid content was estimated by gravimetry.

[8] = tested on: F. diplosiphon B481-SD cultures; assay: GC×GC/TOF-MS analysis of transesterified lipids (FAMEs); assay type: cell-based, Fremyella diplosiphon; conditions: 0.8 mg/L
Protocol: as §6
Simultaneous extraction and transesterification of F. diplosiphon lipids were performed according to the method described by Wahlen et al. (2011). […] The reaction was quenched with 4 ml chloroform, washed in distilled water, and centrifuged at 2000 rpm for phase separation. The chloroform phase containing FAMEs and lipids was transferred to a new flask, and the remaining biomass was washed twice with 2 mL chloroform and mixed. The extracted FAMEs were subjected to high-resolution two-dimensional gas chromatography-time of flight mass spectrometry (GC×GC/TOF-MS) as described by Tabatabai et al. (2018).

[9] = tested on: F. diplosiphon strain B481-SD; assay: lactate dehydrogenase (LDH) activity / membrane permeability, strain B481-SD; assay type: cell-based, Fremyella diplosiphon
[10] = tested on: F. diplosiphon; conditions: day 6; strain not stated
[11] = tested on: F. diplosiphon strain B481-WT; assay: maximum PSII quantum yield (Fv/Fo), strain B481-WT; assay type: cell-based, Fremyella diplosiphon
Protocol: as §4

[12] = tested on: F. diplosiphon strain B481-SD; assay type: cell-based, Fremyella diplosiphon
Protocol: as §5

| SMILES | concentration of maximum LDH activity [2] [mg/L] | concentrations with significant increase in pigment (phycocyanin and chlorophyll α) autofluorescence [3] | concentrations with significant decrease in pigment (phycocyanin and chlorophyll α) autofluorescence [4] [mg/L] | concentration above which filament fragmentation and alteration of cell shape were observed [6] | concentration of maximum LDH activity [9] [mg/L] | concentrations with significant decrease in pigment (phycocyanin and chlorophyll α) autofluorescence [3] [mg/L] | concentrations with enhanced pigment accumulation [4] [mg/L] | concentration of maximal LDH activity (membrane permeability) [10] [mg/L] | also measured |
| --- | --- | --- | --- | --- | --- | --- | --- | --- | --- |
| CC[C@H]1OC(=O)[C@H](C)[C@@H](O[C@H]2C[C@@](C)(OC)[C@@H](O)[C@H](C)O2)[C@H](C)[C@@H](O[C@@H]2O[C@H](C)C[C@H](N(C)C)[C@H]2O)[C@](C)(O)C[C@@H](C)C(=O)[C@H](C)[C@@H](O)[C@]1(C)O [erythromycin] |  |  |  |  |  |  |  |  | low dosages reported to trigger photosynthetic activity [1]: < 20 mg/L |
| CC1(C)S[C@@H]2[C@H](NC(=O)[C@H](N)c3ccccc3)C(=O)N2[C@H]1C(=O)O [ampicillin] | 0.4 | 0.2 to 25.6 mg/L and 0.2 to 51.2 mg/L | 3.2 to 102.5 | higher than 25.6 mg/L |  |  |  |  | concentrations with significant increase in Fv/Fo ([5]; day 4, vs control): 0.2 to 3.2 mg/L; total lipid content compared to the control [7]: slight increase; monounsaturated fatty acids compared to the control [8]: Enhanced amounts; polyunsaturated fatty acids compared to the control [8]: Enhanced amounts; saturated fatty acids (SFAs) compared to the control [8]: augmentation; also recorded: Enhanced amounts; methyl ester of hexadecanoic acid (C16: 0) level vs untreated control ([8]; p<0.05): significantly higher; methyl octadecadienoate (C18: 2) level vs untreated control ([8]; p<0.05): significantly higher; methyloctadecenoate (C18: 1) level vs untreated control ([8]; p<0.05): significantly higher; ç-Linolenic acid (C18: 3) level vs untreated control ([8]; p<0.05): significantly higher |
| CN(C)[C@@H]1C(O)=C(C(N)=O)C(=O)[C@@]2(O)C(O)=C3C(=O)c4c(O)cccc4[C@@](C)(O)[C@H]3C[C@@H]12 [tetracycline] | 0.4 | 0.8 to 12.8 mg/L | 25.6 to 410 |  | 0.8 | 102.5 to 410 | 0.8 to 12.8 | 0.8 | concentrations with significant increase in pigment autofluorescence ([3]; day 6): 0.8 to 12.8 mg/L; concentrations with significant increase in pigment autofluorescence ([4]; day 6): 0.8 to 12.8 mg/L; concentrations with decrease in Fv/Fo ratio ([5]; exposure for 6 days): higher than 102.5 mg/L |
| NC[C@H]1O[C@H](O[C@H]2[C@H](O)[C@@H](O[C@H]3O[C@H](CO)[C@@H](O)[C@H](N)[C@H]3O)[C@H](N)C[C@@H]2N)[C@H](O)[C@@H](O)[C@@H]1O [kanamycin] | 0.4 | 0.2 to 3.2 mg/L | 6.4 to 102.5 | > 51.2 µg/mL | 0.8 | 6.4 to 102.5 | 0.2 to 3.2 | 0.8 | concentrations with decrease in Fv/Fo ratio ([11]; exposure for 6 days): 1.6 to 102.5 mg/L; concentrations with significant increase in Fv/Fo ([11]; vs control group): 0.2 to 1.6 mg/L; concentration above which filament fragmentation and alteration of cell shape were observed [12]: > 51.2 µg/mL |
| CO/N=C(\C(=O)N[C@@H]1C(=O)N2C(C(=O)O)=C(COC(C)=O)CS[C@H]12)c1csc(N)n1 [cefotaxime] |  |  |  |  |  | 0.8 to 102.5 |  |  | concentration above which there is no recovery of Fv/Fo [5]: higher than 1.6 mg/L; concentration above which there is no recovery of Fv/Fo [11]: > 0.05 mg/L |
